Values of other authors, collected in patent US6699871B2, “Beta-amino heterocyclic dipeptidyl peptidase inhibitors for the treatment or prevention of diabetes” (Merck & Co., Inc., priority 2001, dated 2004).

Tests used:
hematopoiesis = conditions: mouse, cyclophosphamide-induced neutropenia
DP-IV = target: T1, DP-IV (Homo sapiens, UniProt P27487)
T1 construct: GRF is rapidly degraded in plasma to GRF[3-44]
T1 sequence (P27487 whole entry): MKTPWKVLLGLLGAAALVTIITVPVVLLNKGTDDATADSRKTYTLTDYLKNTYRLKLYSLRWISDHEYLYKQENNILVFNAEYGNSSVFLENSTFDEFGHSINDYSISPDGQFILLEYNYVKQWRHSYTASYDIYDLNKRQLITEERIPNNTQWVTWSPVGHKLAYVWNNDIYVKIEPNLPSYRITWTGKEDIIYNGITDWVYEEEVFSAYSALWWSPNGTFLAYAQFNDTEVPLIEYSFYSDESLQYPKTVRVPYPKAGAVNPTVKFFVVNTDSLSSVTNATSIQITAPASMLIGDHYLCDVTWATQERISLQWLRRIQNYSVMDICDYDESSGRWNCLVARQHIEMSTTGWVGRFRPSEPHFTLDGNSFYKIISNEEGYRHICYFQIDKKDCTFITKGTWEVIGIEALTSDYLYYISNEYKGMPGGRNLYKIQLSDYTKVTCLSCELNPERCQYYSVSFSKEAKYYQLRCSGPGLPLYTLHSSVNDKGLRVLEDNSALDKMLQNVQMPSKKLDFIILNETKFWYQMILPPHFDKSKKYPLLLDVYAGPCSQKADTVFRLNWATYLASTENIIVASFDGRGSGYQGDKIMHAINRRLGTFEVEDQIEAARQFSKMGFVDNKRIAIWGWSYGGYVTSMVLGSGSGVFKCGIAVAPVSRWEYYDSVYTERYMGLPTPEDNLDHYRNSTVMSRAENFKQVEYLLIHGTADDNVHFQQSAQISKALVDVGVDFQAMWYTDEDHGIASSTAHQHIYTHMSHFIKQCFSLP

Row | SMILES | effect on hematopoiesis (hematopoiesis) | degradation of GRF in plasma to GRF[3-44] (DP-IV)
1 | CC(C)[C@H](N)C(=O)N1CCC[C@H]1B(O)O [Val-Boro-Pro] | stimulated hematopoiesis | –
2 | CC[C@H](C)[C@H](N)C(=O)N1CCC[C@H]1C(=O)N[C@H](C(=O)O)[C@@H](C)CC [diprotin A] | – | prevented
